Reference: patent US20260131015A1, “NEODEGRADER CONJUGATES” (priority 2022, published 2026)

Experiments:
[1] = test system: NCI-H1048 SCLC cell line; experiment: In Vitro Cytotoxicity Assay II (WST-8 cell viability); format: cell-based, human; details: NCI-H1048, 120 hours, WST-8, Table 4
Method: (§1) Cell lines were harvested and plated into 96-well plates. […] The cell viability was determined by colorimetric WST-8 assay (Dojindo Molecular Technologies, Inc.). The OD450 value was read using the SpectraMax M5 plate reader. The values were normalized for each cell line, and IC50s were calculated using the Prism software.

[2] = test system: NCI-H526 SCLC cell line; experiment: as above; format: cell-based, human; details: NCI-H526, 120 hours, WST-8, Table 4
Method: as §1

[3] = test system: NCI-H146 SCLC cell line; experiment: as above; format: cell-based; details: NCI-H146, 120 hours, WST-8, Table 4
Method: as §1

[4] = test system: NCI-H510A SCLC cell line; experiment: as above; format: cell-based; details: 120 hours, WST-8, Table 4
Method: as §1

[5] = test system: NCI-H82 SCLC cell line; experiment: as above; format: cell-based; details: NCI-H82, 120 hours, WST-8, Table 4
Method: as §1

[6] = test system: NCI-H526 human SCLC cell line; experiment: In Vitro Cytotoxicity Assay I (WST-8 cell viability); format: cell-based; details: NCI-H526, 120 hours, WST-8, Table 3
Method: (§2) The cell viability was determined by colorimetric WST-8 assay (Dojindo Molecular Technologies, Inc.). The OD450 value was read using the SpectraMax M5 plate reader. The values were normalized for each cell line, and IC50 values were calculated using the Prism software.

[7] = test system: IMR32 human neuroblastoma (NB) cell line; experiment: as above; format: cell-based; details: IMR32, 120 hours, WST-8, Table 3
Method: as §2

[8] = test system: NCI-H526 human SCLC cell line; experiment: In Vitro Cytotoxicity Assay III (WST-8 cell viability); format: cell-based; details: NCI-H526, 120 hours, WST-8, Table 5
Method: as §1, with “IC50 values” for “IC50s”

[9] = test system: IMR32 human neuroblastoma (NB) cell line; experiment: as above; format: cell-based; details: IMR32, 120 hours, WST-8, Table 5
Method: as §1, with “IC50 values” for “IC50s”

Q: Which IC50 [1] does the source give for `Cc1ccc(NC(=O)NCc2ccc3c(c2)CN(C2CCC(=O)NC2=O)C3=O)cc1Cl` (stereo not drawn) [CC-885, reference compound] here?
A: 0.0409 nM

Q: And the IC50 [2]?
A: 0.177 nM

Q: What about the IC50 [3] of the same compound?
A: 0.527 nM

Q: What about the IC50 [4] of the same compound?
A: 0.23 nM

Q: What about the IC50 [5] of the same compound?
A: 0.603 nM

Q: And the IC50 [6]?
A: 0.118 nM

Q: What about the IC50 [7] of the same compound?
A: 0.145 nM

Q: And the IC50 [8]?
A: 0.128 nM

Q: What about the IC50 [9] of the same compound?
A: 0.0994 nM
